Measurements: patent US10759831B2, “Peptide compound, production method therefor, and use thereof” (iNtRON Biotechnology, Inc., priority 2014, dated 2020)

Key:
[1] = system: colon cancer cell line SW480; assay: SRB cell viability assay, colon cancer cell line SW480; type: cell-based; settings: Homo sapiens, read-out: Growth inhibition value of cancer cell (IC50)
Description: (§1) In detail, 190 μl of a cell suspension at a concentration of 3.5×10^4 cells/ml was inoculated in each well of a 96-well microplate. 0.8 μM, 4 μM, 20 μM, or 100 μM of Asperphenin was added to the cell culture medium, and cultured at a temperature of 37° C. for 72 hours under the condition of 5% CO2. After incubation, 50 μl of 50% (v/v) trichloroacetic acid solution (Sigma Aldrich) was added to each well, and then, incubated at a temperature of 4° C. for 30 minutes, to thereby fix the cells thereto. The fixed cells were washed with water five times, and then, dried in the air.
(§2) Next, 80 μl of a 0.4% (w/v) SRB aqueous solution (Sigma Aldrich) containing 1% (v/v) acetic acid (DUKSAN) was added to each well, incubated at room temperature for 1 hour to stain cells therein, and the stained cells washed with water and dried. The cells were dissolved by adding 200 μl of 10 mM Tris (pH 10.0) (Sigma Aldrich) to each well, and then, the number of living cells was calculated by measuring the absorbance thereof at 515 nm. […]
(§3) From the colon cancer cell lines HCT116 (ATCC), HCT15 (Korean Cell Line Bank), LS174T (Korean Cell Line Bank), RKO(ATCC), and SW480(ATCC), cell growth inhibition concentrations (IC50, μM) were calculated as described in Example 2-1, and the results are shown in Table 4. […]

[2] = system: colon cancer cell line LS174T; assay: SRB cell viability assay, colon cancer cell line LS174T; type: cell-based; settings: Homo sapiens, read-out: Growth inhibition value of cancer cell (IC50)
Description: as §1, §2, §3

[3] = system: colon cancer cell line HCT15; assay: SRB cell viability assay, colon cancer cell line HCT15; type: cell-based; settings: Homo sapiens, HCT-15, read-out: Growth inhibition value of cancer cell (IC50)
Description: as §1, §2, §3

[4] = system: cell cycle-related proteins in RKO cells; assay: Immunoblotting of cell cycle-related proteins; type: cell-based, human
Description: As described in Example 2-3, cells were obtained in a way that Asperphenin B at the concentration of 0.625 μM, 1.25 μM, 2.5 μM, 5 μM, or 10 μM was added to the RKO cells, and then, cultured for 48 hours. However, cells were obtained in a way that Asperphenin B at the concentration of 5 μM was added to the RKO cells, and then, cultured for 0 to 48 hours. Then, proteins were obtained from the obtained cells.
Regarding the expression of the cell cycle-related proteins, anti-p-cyclin B1(Ser147) antibody (Cell Signaling Technology), anti-cyclin B1 antibody (Santa Cruz), anti-p-cdc2(Tyr15) antibody (Cell Signaling Technology), anti-cdc2 antibody (Santa Cruz), and anti-β-actin antibody (Santa Cruz) were used to perform immunoblotting thereon.

[5] = system: colon cancer cell line RKO; assay: SRB cell viability assay, colon cancer cell line RKO; type: cell-based; settings: Homo sapiens, read-out: Growth inhibition value of cancer cell (IC50)
Description: as §1, §2, §3

- IC50 [1]: 31.4 µM
- IC50 [2]: 1.84 µM
- IC50 [3]: 7.2 µM
- IC50 [5]: 1.17 µM
SMILES: CCCCCCCCC[C@@H](O)CC(=O)N[C@@H](CC(N)=O)C(=O)N[C@@H](CCC(N)=O)C(=O)N[C@H](CC(=O)c1cc(C)cc(O)c1C(=O)c1c(O)cccc1O)CC(C)C [Asperphenin B]
- Expression of p-cdc2 (Tyr15) protein ([4]; 5 μM, 0 to 48 hours, FIG. 5B): increased in time-dependent manner
- Expression of p-cyclin B1 (Ser147) ([4]; 5 μM, 0 to 48 hours, FIG. 5B): highest at about 24 hours
- Expression of non-active p-cyclin B1 (Ser147) protein ([4]; 48 hours, 2.5 μM, FIG. 5A): increased
- Expression of p-cyclin B1 (Ser147) protein and cyclin B1 protein ([4]; 48 hours, 5 μM and 10 μM, FIG. 5A): decreased
- Expression of non-active p-cdc2 (Tyr15) protein ([4]; 48 hours, 0.625-10 μM, FIG. 5A): increased in a concentration-dependent manner
